9 molecules from PubChem BioAssay (NCI) can be followed below.

Some test systems named below: HCC-2998 colon; HL-60(TB) leukemia; EKVX NSCLC; CCRF-CEM leukemia; M14 melanoma; MDA-N; A498 renal; HOP-62 NSCLC; 786-0 renal; ACHN renal; SK-OV-3 ovarian; SF-295 CNS; SK-MEL-28 melanoma; UO-31 renal; NCI-H23 lung; MDA-MB-231 breast; U251 CNS; K-562 leukemia; IGROV1 ovarian; HOP-92 NSCLC.
Common to all, as to experiment: inhibition of tumour cell growth, NCI panel, 48 h

Structures are written as SMILES.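 Method: 48-hour compound exposure of cells in 96-well plates, five concentrations, linear interpolation of endpoints. TGI marks complete inhibition of growth.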 Some results are limits rather than exact numbers.

In the case of `CCCCCCCC(=O)N/N=C/c1ccc(Sc2nccn2C)c([N+](=O)[O-])c1`, the TGI amounted to 26.5 µM with HCC-2998 colon; 0.772 µM with HL-60(TB) leukemia; 42.8 µM in the assay on EKVX NSCLC; 17.2 µM in the assay with CCRF-CEM leukemia; 27.7 µM with M14 melanoma; 32 µM in the assay on MDA-N. The TGI with A498 renal was 32 µM; in the assay with HOP-62 NSCLC, 36.4 µM; with 786-0 renal, 32.4 µM; with ACHN renal it was 75.2 µM; in the assay with SK-OV-3 ovarian, greater than 100 µM; in the assay on SF-295 CNS, 33.9 µM. For the same molecule, the TGI with SK-MEL-28 melanoma came out at 27.3 µM; with UO-31 renal it was 22.7 µM; in the assay with NCI-H23 lung, 42.9 µM; in the assay with MDA-MB-231 breast, 30.1 µM; in the assay with U251 CNS it was 32.2 µM; in the assay on K-562 leukemia it was 82.6 µM. For the same molecule, the TGI in the assay with IGROV1 ovarian came out at 24.7 µM; in the assay on HOP-92 NSCLC, 15 µM.

On to `N=c1oc2ccc(Cl)cc2cc1C(=O)Nc1ccccc1`, for which the TGI in the assay with HCC-2998 colon, with HL-60(TB) leukemia, with EKVX NSCLC, in the assay with CCRF-CEM leukemia, in the assay with M14 melanoma and in the assay on MDA-N was greater than 100 µM throughout. Besides, the TGI was greater than 100 µM in the assay with A498 renal; greater than 94.8 µM in the assay with HOP-62 NSCLC; greater than 100 µM with 786-0 renal; greater than 100 µM in the assay on ACHN renal; greater than 70.2 µM in the assay with SK-OV-3 ovarian; greater than 100 µM in the assay with SF-295 CNS. Also, the TGI in the assay with SK-MEL-28 melanoma was greater than 100 µM; in the assay with UO-31 renal, greater than 100 µM; in the assay on NCI-H23 lung it was greater than 100 µM; in the assay with MDA-MB-231 breast, greater than 100 µM; in the assay on U251 CNS, greater than 93 µM; in the assay on K-562 leukemia it was greater than 100 µM. The TGI with IGROV1 ovarian and in the assay on HOP-92 NSCLC was greater than 100 µM in each case.

For the molecule `O=C1CCc2cc3c(cc21)CC1(Cc2ccccc2C1)C3`, the TGI is greater than 70.5 µM in the assay on HCC-2998 colon; 5.26 µM in the assay on HL-60(TB) leukemia; greater than 100 µM with EKVX NSCLC; 7.03 µM in the assay with CCRF-CEM leukemia; greater than 100 µM in the assay with M14 melanoma; 4.76 µM with MDA-N. In addition, the TGI in the assay on A498 renal was 66.6 µM; in the assay on HOP-62 NSCLC it was greater than 84.6 µM; with 786-0 renal, greater than 100 µM; with ACHN renal, greater than 91.7 µM; with SK-OV-3 ovarian it was greater than 100 µM; in the assay with SF-295 CNS it was greater than 87.1 µM. For the same molecule, the TGI in the assay with SK-MEL-28 melanoma is greater than 100 µM; in the assay with UO-31 renal it was greater than 100 µM; in the assay on NCI-H23 lung it was greater than 86.5 µM; with MDA-MB-231 breast, greater than 100 µM; in the assay with U251 CNS, greater than 100 µM; in the assay on K-562 leukemia, 5.38 µM. Moreover, the values for the TGI in the assay with IGROV1 ovarian and in the assay on HOP-92 NSCLC were greater than 100 µM and 35.6 µM, respectively.

With `COc1ccc(C2NC3=C(CCCC3)C3(C#N)C(=O)N=C(N)C23C#N)cc1` (stereo not given), the TGI in the assay on HCC-2998 colon was greater than 100 µM; with HL-60(TB) leukemia it was greater than 100 µM; in the assay with EKVX NSCLC, greater than 100 µM; in the assay on CCRF-CEM leukemia, 91.9 µM; with M14 melanoma, greater than 100 µM; in the assay with MDA-N it was greater than 100 µM. Further, the TGI with A498 renal, with HOP-62 NSCLC, with 786-0 renal, with ACHN renal, with SK-OV-3 ovarian and in the assay on SF-295 CNS was greater than 100 µM throughout. The TGI in the assay with SK-MEL-28 melanoma, with UO-31 renal, in the assay on NCI-H23 lung, with MDA-MB-231 breast, with U251 CNS and in the assay with K-562 leukemia was greater than 100 µM throughout. The TGI with IGROV1 ovarian and in the assay on HOP-92 NSCLC was greater than 100 µM each time.

With `O=C(O)C/C(=C\c1ccccc1)C(=O)O`, the TGI with HCC-2998 colon, in the assay with HL-60(TB) leukemia, with EKVX NSCLC, with CCRF-CEM leukemia, in the assay with M14 melanoma and in the assay with MDA-N was greater than 100 µM throughout. The TGI in the assay on A498 renal, in the assay with HOP-62 NSCLC, in the assay with 786-0 renal, with ACHN renal, in the assay with SK-OV-3 ovarian and in the assay on SF-295 CNS was greater than 100 µM throughout. Moreover, the TGI was greater than 100 µM with SK-MEL-28 melanoma; greater than 100 µM with UO-31 renal; greater than 100 µM in the assay with NCI-H23 lung; greater than 100 µM in the assay on MDA-MB-231 breast; greater than 100 µM in the assay with U251 CNS; 93.5 µM in the assay with K-562 leukemia. Further, the TGI in the assay on IGROV1 ovarian and with HOP-92 NSCLC was greater than 100 µM in each case.

As for `Cc1ncc([N+](=O)[O-])n1CCNC(=O)CCCn1cnc([N+](=O)[O-])n1`, the TGI with HCC-2998 colon was greater than 100 µM; with HL-60(TB) leukemia it was greater than 100 µM; in the assay with EKVX NSCLC, greater than 31.6 µM; in the assay on CCRF-CEM leukemia it was greater than 100 µM; with M14 melanoma it was greater than 100 µM; in the assay on MDA-N it was greater than 100 µM. Besides, the TGI in the assay on A498 renal, with HOP-62 NSCLC, in the assay with 786-0 renal, in the assay on ACHN renal, with SK-OV-3 ovarian and in the assay on SF-295 CNS was greater than 100 µM throughout. The TGI with SK-MEL-28 melanoma, with UO-31 renal, in the assay with NCI-H23 lung, in the assay with MDA-MB-231 breast, in the assay on U251 CNS and in the assay on K-562 leukemia was greater than 100 µM throughout. Also, the TGI in the assay on IGROV1 ovarian and in the assay on HOP-92 NSCLC was greater than 100 µM in each case.

As for `CN1C(=O)C(O)CC1c1cccc(F)c1` (stereo not given), the TGI in the assay with HCC-2998 colon, in the assay on HL-60(TB) leukemia, with EKVX NSCLC, in the assay on CCRF-CEM leukemia, in the assay on M14 melanoma and in the assay with MDA-N was greater than 100 µM in each case. Further, the TGI in the assay on A498 renal, in the assay on HOP-62 NSCLC, in the assay on 786-0 renal, in the assay with ACHN renal, with SK-OV-3 ovarian and with SF-295 CNS was greater than 100 µM in each case. The TGI with SK-MEL-28 melanoma, with UO-31 renal, in the assay with NCI-H23 lung, with MDA-MB-231 breast, in the assay on U251 CNS and with K-562 leukemia was greater than 100 µM each time. In addition, the TGI in the assay on IGROV1 ovarian and in the assay on HOP-92 NSCLC was greater than 100 µM each time.

With `O=C(CC(C(=O)c1ccsc1)c1ccccc1)c1cccs1` (stereo not given), the TGI with HCC-2998 colon, with HL-60(TB) leukemia, in the assay with EKVX NSCLC, in the assay with CCRF-CEM leukemia, with M14 melanoma and in the assay with MDA-N was greater than 100 µM throughout. Besides, the TGI in the assay on A498 renal, in the assay on HOP-62 NSCLC, in the assay on 786-0 renal, in the assay with ACHN renal, in the assay on SK-OV-3 ovarian and in the assay on SF-295 CNS was greater than 100 µM throughout. Moreover, the TGI is greater than 100 µM in the assay with SK-MEL-28 melanoma; 95.7 µM with UO-31 renal; 77.3 µM with NCI-H23 lung; greater than 100 µM with MDA-MB-231 breast; greater than 100 µM with U251 CNS; greater than 100 µM in the assay on K-562 leukemia. Further, the TGI in the assay with IGROV1 ovarian and in the assay on HOP-92 NSCLC was greater than 100 µM throughout.

For the molecule `CSc1c(C(=O)Nc2ccc(Cl)cc2)c(N)[nH]c(=O)c1C#N`, the TGI with HCC-2998 colon is greater than 90.2 µM; in the assay with HL-60(TB) leukemia, greater than 100 µM; in the assay on EKVX NSCLC, greater than 80 µM; in the assay with CCRF-CEM leukemia it was greater than 100 µM; in the assay with M14 melanoma it was greater than 100 µM; in the assay on MDA-N, greater than 70 µM. The TGI with A498 renal was 62.1 µM; in the assay with HOP-62 NSCLC it was 73 µM; in the assay with 786-0 renal, 77.9 µM; in the assay on ACHN renal it was greater than 100 µM; in the assay on SK-OV-3 ovarian it was greater than 100 µM; in the assay on SF-295 CNS, 83.6 µM. Further, the TGI in the assay with SK-MEL-28 melanoma was greater than 100 µM; in the assay with UO-31 renal, 59 µM; with NCI-H23 lung, 53.3 µM; in the assay on MDA-MB-231 breast, greater than 60.9 µM; with U251 CNS it was greater than 71.4 µM; in the assay with K-562 leukemia, greater than 100 µM. Also, the TGI in the assay on IGROV1 ovarian is greater than 100 µM; in the assay with HOP-92 NSCLC, 59.9 µM.
